# Measured values as given in US7531195B2, “Schisandrin B preparation” (priority 2005, dated 2009).
# Marks after values point to notes of the source that are not given here.
# Columns and labels:
# [1] = tested on: Hsp70; assay: Hsp70 expression in H9c2 cells (Western blot); assay type: cell-based, rat; details: 6.25 μM
# Method: H9c2 cells, a permanent cell line derived from cardiac myoblasts of rat embryo, have early been characterized as a suitable model of myocardial cells [Hescheler et al. 1991]. H9c2 cells were cultured as monolayers in Dulbecco's modified Eagle's medium (GIBCO BRL) supplemented with 10% (v/v) fetal bovine serum. The medium contained glucose (4.5 g/L) and glutamine (4.5 mM), supplemented with NaHCO3 (17 mM), penicillin (100 IU/ml), and streptomycin (100 μg/ml). Cells were grown under an atmosphere of 5% CO2 in air at 37° C. The medium was replaced by fresh medium every 2 or 3 days. A stock of cells was grown in a 75 cm culture flask and split before confluence at a subcultivation ratio of 1:10. Cells used for experiments were seeded at a density of 3.75×10^4 cells/well on a 12-well culture plate, and the cells were grown for 24 h to about 80% confluence prior to drug treatment.
# Cultured H9c2 cells were treated with (−) Schisandrin B, (+) Schisandrin B or (±) Schisandrin B (dissolved in DMSO) at 6.25 μM (0.2% DMSO final concentration) for increasing periods of time. Control cells were given the vehicle (i.e. DMSO) only.
# Immediately following the drug treatment, the cells were washed twice with 0.5 ml cold PBS and treated with 100 μl lysis buffer containing 20 mM Tris HCl, 3 mM EGTA, 1% Triton X-100, 10% glycerol and 2 mM dithiothreitol, pH 7.5, with freshly added protease inhibitors (1 mM phenylmethylsulfonyl fluoride, 0.1 mM benzamide, 5 μg/ml leupeptin, 5 μg aproptinin and 5 μg/ml pepstain A). The mixture was incubated at 4° C. for 15 min with constant shaking. Then the cells were scraped off from the plate, and the extract was transferred to a microcentrifuge tube for centrifugation at 2,400 g for 3 min at 4° C. The resultant supernatant was used for Hsp analysis. Hsp25 and Hsp70 levels was estimated by Western blot analysis using specific antibodies (anti-Hsp25, catalog #SPA-801; anti-Hsp70, catalog #SPA-812) from StressGen (Vancouver, BC, Canada) following SDS-PAGE analysis cell lysates, using a separating gel of 10% acrylamide as described in Ip et. al. [2001]. Hsp25/27 and Hsp70 (human recombinant proteins from StressGen) and actin (bovine muscle from Sigma) were used as markers for reference. […] All immuno-blots were analyzed by densitometry, and the amounts (arbitrary units) of Hsp were normalized with reference to actin levels (arbitrary units) in the sample.
# [2] = tested on: Myocardial Mitochondria; assay: Myocardial mitochondrial glutathione antioxidant status, young male and female rats; assay type: in vivo, rat; details: 35 days
# Method: Male/Female adult Sprague-Dawley rats (˜10 weeks old) were maintained under a 12-h dark/light cycle at about 22° C. and allowed food and water ad libitum. Animals were randomly divided into groups, with at least 5 animals in each. In the pretreatment groups, rats were treated intragastrically with (−) Schisandrin B at a daily dose of 1 or 10 mg/kg for 35 days. Control animals received oil only (10 ml/kg). Twenty-four hours following the last dosing, hearts were isolated from control or drug-pretreated rats and then subjected to Langendorff perfusion as described below.
# Myocardial tissue samples were rinsed with ice-cold isotonic buffer (50 mM Tris, 0.32 M sucrose, 1 mM Na2EDTA, 0.2 mg/ml soybean trypsin inhibitor, 0.2 mg/ml bacitracine, 0.16 mg/ml benzamidine). Tissue homogenates were prepared by homogenizing 0.8 g of myocardial tissue in 8 ml ice-cold isotonic buffer and the homogenates were used for the preparation of mitochondrial fractions by differential centrifugation, as described in Chiu and Ko (2004). The mitochondrial pellets were resuspended in 1.5 ml of isotonic buffer containing 150 μl of 2 mg/ml soybean trypsin inhibitor and constituted the mitochondrial fractions.
# Aliquots (500 μl) of mitochondrial fractions were taken for measuring mitochondrial GSH level by HPLC methods, using GSH as standards, respectively, as described (Chiu et al 2002). Aliquots (400 μl) of mitochondrial fractions were mixed with 933 μl Triton X-100 solution (0.3%, v/v, in isotonic buffer) and sonicated for 2 min on ice. The mixtures were then subjected to measurements of mitochondrial glutathione reductase (GRD), Se-glutathione peroxidase (GPX) and glutathione S-transferases (GST) activities by spectrophotometric methods, as described in Chiu et al. (2002).
# [3] = female rats, 1 mg/kg daily oral
# [4] = female rats, 10 mg/kg daily oral
smiles,measurement,setting,value
"COc1cc2c(c(OC)c1OC)-c1c(cc3c(c1OC)OCO3)CC(C)C(C)C2 (single isomer, unassigned; (-)) [(−) Sch B, (−) Schisandrin B]",Hsp 70 Level,[1]; 0 h post-dosing (unpretreated control),465 ± 14.3 AU
same,Hsp 70 Level,[1]; 8 h post-dosing,486 ± 16.7 AU
same,Hsp 70 Level,[1]; 16 h post-dosing,548 ± 6.67 AU
same,Hsp 70 Level,[1]; 24 h post-dosing,1058 ± 61 AU
same,"Hsp 70 Level, percent increase vs unpretreated control (0 h)",[1]; 24 h post-dosing,(128%)
same,Hsp 70 Level,[1]; 48 h post-dosing,556 ± 32.1 AU
same,time of maximum stimulation of Hsp70 level,[1]; post-dosing,24 h
same,GPX,[2]; [3],73.2 ± 4.98^b mU/mg Protein
same,"GPX, percent increase vs untreated control",[2]; [3],(43%)
same,GRD,[2]; [3],6.30 ± 0.37^b mU/mg protein
same,"GRD, percent increase vs untreated control",[2]; [3],(34%)
same,GSH,[2]; [3],17.3 ± 1.11^b nmol/mg protein
same,"GSH, percent increase vs untreated control",[2]; [3],(60%)
same,GST,[2]; [3],14.1 ± 0.58^b mU/mg protein
same,"GST, percent increase vs untreated control",[2]; [3],(37%)
same,GPX,[2]; [4],78.3 ± 2.94^b mU/mg Protein
same,"GPX, percent increase vs untreated control",[2]; [4],(53%)
same,GRD,[2]; [4],8.02 ± 0.55^b mU/mg protein
same,"GRD, percent increase vs untreated control",[2]; [4],(71%)
same,GSH,[2]; [4],21.6 ± 0.38^b nmol/mg protein
same,"GSH, percent increase vs untreated control",[2]; [4],(107%)
same,GST,[2]; [4],16.9 ± 0.90^b mU/mg protein
same,"GST, percent increase vs untreated control",[2]; [4],(63%)
same,GPX,"[2]; male rats, 1 mg/kg daily oral",77.3 ± 3.78^a mU/mg Protein
same,"GPX, percent increase vs untreated control","[2]; male rats, 1 mg/kg daily oral",(48%)
same,GRD,"[2]; male rats, 1 mg/kg daily oral",6.76 ± 0.29 mU/mg protein
same,"GRD, percent increase vs untreated control","[2]; male rats, 1 mg/kg daily oral",(26%)
same,GSH,"[2]; male rats, 1 mg/kg daily oral",18.1 ± 1.06^a nmol/mg protein
same,"GSH, percent increase vs untreated control","[2]; male rats, 1 mg/kg daily oral",(56%)
same,GST,"[2]; male rats, 1 mg/kg daily oral",12.8 ± 0.10 mU/mg protein
same,"GST, percent increase vs untreated control","[2]; male rats, 1 mg/kg daily oral",(65%)
same,GPX,"[2]; male rats, 10 mg/kg daily oral",83.7 ± 2.12^a mU/mg Protein
same,"GPX, percent increase vs untreated control","[2]; male rats, 10 mg/kg daily oral",(60%)
same,GRD,"[2]; male rats, 10 mg/kg daily oral",7.59 ± 0.13^a mU/mg protein
same,"GRD, percent increase vs untreated control","[2]; male rats, 10 mg/kg daily oral",(42%)
same,GSH,"[2]; male rats, 10 mg/kg daily oral",23.8 ± 1.10^a nmol/mg protein
same,"GSH, percent increase vs untreated control","[2]; male rats, 10 mg/kg daily oral",(105%)
same,GST,"[2]; male rats, 10 mg/kg daily oral",14.5 ± 0.36^a mU/mg protein
same,"GST, percent increase vs untreated control","[2]; male rats, 10 mg/kg daily oral",(83%)
